In brackets after ≈: the same amount, converted by molar mass. Entries after “also recorded” stand apart in the source; their conditions may differ. Where two headings read alike, the source gives them in different places.
Key:
[1] = system: Acinetobacter baumannii DSM 30008; experiment: Antimicrobial serial dilution assay (MIC); assay type: cell-based; details: n.i.: no inhibition
Experimental: (§1) The antimicrobial activity (minimum inhibitory concentration, MIC) of the compounds was determined against Acinetobacter baumannii DSM 30008, Bacillus subtilis DSM 10, Chromobacterium violaceum DSM 30191, Escherichia coli DSM 1116, Mycobacterium smegmatis ATCC 700084, Pseudomonas aeruginosa PA14, Staphylococcus aureus DSM 346, Candida albicans DSM1665, Mucor hiemalis DSM 2656, Pichia anomala DSM 6766, Rhodotorula glutinis DSM 10134 and Schizosaccharomyces pombe DSM 70572 in a serial dilution assay as previously described.

[2] = system: Bacillus subtilis DSM 10; experiment: Antimicrobial serial dilution assay (MIC); assay type: cell-based; details: Bacillus subtilis DSM 10, n.i.: no inhibition
Experimental: as §1

[3] = system: Candida albicans DSM1665; experiment: Antimicrobial serial dilution assay (MIC); assay type: cell-based; details: n.i.: no inhibition
Experimental: as §1

[4] = system: Chromobacterium violaceum DSM 30191; experiment: Antimicrobial serial dilution assay (MIC); assay type: cell-based
Experimental: as §1

[5] = system: Escherichia coli DSM 1116; experiment: Antimicrobial serial dilution assay (MIC); assay type: cell-based; details: n.i.: no inhibition
Experimental: as §1

[6] = system: Mucor hiemalis DSM 2656; experiment: Antimicrobial serial dilution assay (MIC); assay type: cell-based; details: Mucor hiemalis DSM 2656, n.i.: no inhibition
Experimental: as §1

[7] = system: Mycobacterium smegmatis ATCC 700084; experiment: Antimicrobial serial dilution assay (MIC); assay type: cell-based; details: Mycobacterium smegmatis ATCC 700084, n.i.: no inhibition
Experimental: as §1

[8] = system: Pichia anomala DSM 6766; experiment: Antimicrobial serial dilution assay (MIC); assay type: cell-based; details: Pichia anomala DSM 6766, n.i.: no inhibition
Experimental: as §1

[9] = system: Pseudomonas aeruginosa PA14; experiment: Antimicrobial serial dilution assay (MIC); assay type: cell-based; details: n.i.: no inhibition
Experimental: as §1

[10] = system: Rhodotorula glutinis DSM 10134; experiment: Antimicrobial serial dilution assay (MIC); assay type: cell-based; details: Rhodotorula glutinis DSM 10134, n.i.: no inhibition
Experimental: as §1

[11] = system: Schizosaccharomyces pombe DSM 70572; experiment: Antimicrobial serial dilution assay (MIC); assay type: cell-based; details: Schizosaccharomyces pombe DSM 70572, n.i.: no inhibition
Experimental: as §1

[12] = system: Staphylococcus aureus DSM 346; experiment: Antimicrobial serial dilution assay (MIC); assay type: cell-based; details: Staphylococcus aureus DSM 346, n.i.: no inhibition
Experimental: as §1

[13] = MTT cytotoxicity assay; assay type: cell-based; details: read-out: Cytotoxic activity (IC50)
Experimental: (§2) The in vitro cytotoxicity assay was performed using the MTT (3-(4,5-dimethylthiayol-2-yl)-2,5-diphenyltetrazolium bromide) test in 96-well microtiter plates as previously described.

[14] = system: H. fraxineus (isolate RH02-T6-B4-2); experiment: Agar disc diffusion assay; assay type: cell-based, Hymenoscyphus fraxineus; details: for Antifungal activity, inhibition diameter: 6 mm disc, 7 days, 21 °C
Experimental: The antifungal activity of the isolated compounds against H. fraxineus was assessed by the disc diffusion method using 9 cm diameter petri dishes as previously described […] Three sterile filter paper discs per plate were gently placed on dried potato–dextrose agar. The fungicide nystatin was applied as the positive control (20 and 50 µg/paper disc) and methanol as the negative control (10 µL/paper disc). The test plates were incubated at 21 °C for 7 days, the inhibition diameters were measured, and the activity was evaluated compared to nystatin.
Figure S44: Agar disc (6 mm diam.) diffusion assay of compound CJ-17,572 (1) against H. fraxineus RH02-T6-B4-2, grown in 9-cm petri dishes on agar-based PD
medium with H. fraxineus, N - positive control nystatin, M - negative control methanol, CJ – 1.
Table S1. Antifungal activity of the compounds 1-6. n.i.: no inhibition, n.t.: not tested.
Compounds Amount ( µg/paper disc)
Peziculastatin n.t. n.i. 8 mm
Mycorrhizin A 19 mm 31 mm n.t.
Cryptosporioptide A n.t. n.i. n.i.
Cryptosporioptide B n.t. n.i. 8 mm
Cryptosporioptide C n.t. n.i. n.i.
Nystatin 21 mm 24 mm n.t.

[15] = system: Fraxineus excelsior leaves; experiment: Phytotoxicity leaf puncture assay; details: 1 mg/mL in MeOH, 20 µL on punctured leaves, evaluated after 3 days
Experimental: The phytotoxicity of the compounds 1, 3 and 4 was assessed using the leaf puncture assay as described previously. The other compounds could not be evaluated because of the limited quantity.
For this assay, similar leaves of the same Fraxineus excelsior plant were chosen onto which the compounds were applied. The pure compounds were dissolved at 1 mg/mL in MeOH. Then, 20 µL of test samples were applied to the adaxial sides of leaves that had previously been needle punctured. A total of 20 µL of MeOH in distilled water (4%) was applied on the leaves as the negative control and 1 mg/mL macrocidin A [23] as the positive control. Each treatment was repeated three times and then the leaves were placed on moistened paper filters in petri dishes (diameter 9 cm) to prevent the droplets from drying. The experiment was run in duplicate. Leaves were evaluated for the symptoms after 3 days.

[16] = system: panel of bacteria and fungi; experiment: Antimicrobial serial dilution assay, whole panel (summary statements); assay type: cell-based
Experimental: as §1

[17] = system: panel of mammalian cell lines; experiment: MTT cytotoxicity assay, panel (summary statements); assay type: cell-based; details: 4–6 only KB3.1 and L929
Experimental: as §2

[18] = system: Staphylococcus aureus DSM 1104 preformed biofilm; experiment: Biofilm assay, dispersal of preformed biofilm; assay type: cell-based; design: Antibiofilm activity, preformed S. aureus: unit not given here; details: (/) no activity
Experimental: Staphylococcus aureus DSM 1104 from −20 °C stock was cultured in 25 mL CASO (Casein–Peptone Soymeal–Peptone; peptone from casein 15 g/L, peptone from soy flour 5 g/L, NaCl 5 g/L, pH 7.3) medium at 37 °C at 100 rpm in 250 mL for 20 h. The precultured suspension of S. aureus was adjusted so that its OD600 matched the turbidity of a 0.001 McFarland standard. S. aureus was incubated in 96-well tissue microtiter plates (TPP tissue culture ref.no 92196, Switzerland) for 24 h at 150 rpm in […] CASO medium with 4% glucose broth. The supernatant was removed from the wells and 150 μL of the respective media (fresh) was added to the wells, together with the serially diluted compounds (250–2 μg/mL). The plates were incubated for a further 24 h at 37 °C. Staining of the biofilms was carried out as described previously. Standard deviation (SD) of two repeats with duplicates each were 10% or less. Methanol (2.5%) and microporenic acid A (250–2 μg/mL) were used as solvent and positive controls. Error bars indicate SD with duplicates in two biological repeats.

[19] = system: Candida albicans DSM 11225 biofilm; experiment: Biofilm assay, inhibition of biofilm formation; assay type: cell-based; details: (/) no activity
Experimental: The stock of fungal pathogen Candida albicans DSM 11225 from −20 °C was cultured in 25 mL YPD (Yeast extract Peptone Dextrose; dextrose 20 g/L, peptone 20 g/L, yeast extract 10 g/L) medium in a 250 mL flask at 30 °C with shaking 100 rpm for 18 h. Turbidity of the broth was measured and diluted to match the turbidity of a 0.05 McFarland standard in RPMI 1640 medium (Gibco, New York, NY, USA, Thermo Fisher Scientific). Afterwards, 150 μL of the fungal dispersion was added into each well of a 96-well microtiter plate (Falcon no. 351172, Thermo Fisher Scientific) and further incubated for 90 min. The supernatant was removed, and the plate was washed once by using PBS buffer. Compounds were serially diluted in 150 μL in fresh medium to concentrations of 250–2 μg/mL. Staining and analysis were conducted as previously described. Methanol (2.5%) and farnesol (250–2 μg/mL) were used as solvent and positive controls. Error bars indicate SD with duplicates in two biological repeats.

[20] = 50 µg/paper disc, n.i.: no inhibition

CC=C(Cl)C1=CC(=O)C23CC2C(C)(C)OC3(O)C1=O (centres unmarked) [Compound 3, Mycorrhizin A]
Minimum inhibitory concentration (MIC) [1]: n.i. | MIC ([2]; DSM10, read-out: Minimum inhibitory concentration (MIC)): 66.6 µg/mL (≈ 236 µM) | MIC ([3]; read-out: Minimum inhibitory concentration (MIC)): 66.6 µg/mL (≈ 236 µM) | MIC ([4]; DSM30191, n.i.: no inhibition, read-out: Minimum inhibitory concentration (MIC)): 66.6 µg/mL (≈ 236 µM) | Minimum inhibitory concentration (MIC) [5]: n.i. | MIC ([6]; DSM2656, read-out: Minimum inhibitory concentration (MIC)): 4.2 µg/mL (≈ 14.9 µM) | MIC ([7]; Mycolicibacterium smegmatis, ATCC700084, read-out: Minimum inhibitory concentration (MIC)): 66.6 µg/mL (≈ 236 µM) | MIC ([8]; Hansenula anomala, DSM6766, read-out: Minimum inhibitory concentration (MIC)): 16.6 µg/mL (≈ 58.7 µM) | Minimum inhibitory concentration (MIC) [9]: n.i. | MIC ([10]; DSM10134, read-out: Minimum inhibitory concentration (MIC)): 8.3 µg/mL (≈ 29.4 µM) | MIC ([11]; DSM70572, read-out: Minimum inhibitory concentration (MIC)): 33.3 µg/mL (≈ 118 µM) | MIC ([12]; DSM346, read-out: Minimum inhibitory concentration (MIC)): 66.6 µg/mL (≈ 236 µM) | IC50 ([13]; human, A431 squamous cell carcinoma cells): 1 µM | IC50 ([13]; human, A549 lung carcinoma cells): 22 µM | IC50 ([13]; human, KB3.1 endocervical adenocarcinoma cells, n.c.: no cytotoxicity): 11 µM | IC50 ([13]; human, MCF-7 breast adenocarcinoma cells): 0.64 µM | IC50 ([13]; human, PC-3 prostate cancer cells): 11 µM | IC50 ([13]; human, SKOV-3 ovarian carcinoma cells): 2.4 µM | IC50 ([13]; mouse, L929 fibroblast cells, n.c.: no cytotoxicity): 3.2 µM | Antifungal activity, inhibition diameter ([14]; 20 µg/paper disc): 19 mm | inhibitory effects against H. fraxineus (in words) ([14]; 50 µg (1) and 20 µg (3) test substance per paper disc): strong inhibitory effects | Antifungal activity, inhibition diameter [14, 20]: 31 mm | phytotoxic activity, leaf puncture assay [15]: brownish lesions; also recorded: most phytotoxic effects | antimicrobial activity against the tested microorganisms (in words) [16]: moderate to weak antifungal activity | cytotoxicity against the tested cell lines (in words) [17]: active against all the tested cell lines

CC12Oc3ccc(-c4ccc5c(c4O)C(=O)C4=C(O)C6OC6(C)C(OC(=O)CC(=O)O)C4(C)O5)c(O)c3C(=O)C1=C(O)C1OC1(C)C2OC(=O)CC(=O)O (centres unmarked) [Compound 4, Cryptosporioptide A]
Minimum inhibitory concentration (MIC) [1]: n.i. | Minimum inhibitory concentration (MIC) [2]: n.i. | Minimum inhibitory concentration (MIC) [3]: n.i. | Minimum inhibitory concentration (MIC) ([4]; n.i.: no inhibition): n.i. | Minimum inhibitory concentration (MIC) [5]: n.i. | Minimum inhibitory concentration (MIC) [6]: n.i. | Minimum inhibitory concentration (MIC) [7]: n.i. | Minimum inhibitory concentration (MIC) [8]: n.i. | Minimum inhibitory concentration (MIC) [9]: n.i. | Minimum inhibitory concentration (MIC) [10]: n.i. | Minimum inhibitory concentration (MIC) [11]: n.i. | Minimum inhibitory concentration (MIC) [12]: n.i. | Antifungal activity, inhibition diameter [14, 20]: n.i. | Antifungal activity, inhibition diameter ([14]; 100 µg/paper disc, n.i.: no inhibition): n.i. | Antibiofilm activity, preformed S. aureus ([18]; 62.5 µg/mL): 70 | Antibiofilm activity, preformed S. aureus ([18]; 125 µg/mL): 73 | Antibiofilm activity, preformed S. aureus ([18]; 250 µg/mL): 80 | Antibiofilm activity, C. albicans ([19]; 31.3 µg/mL): 39 | Antibiofilm activity, C. albicans ([19]; 62.5 µg/mL): 71 | Antibiofilm activity, C. albicans ([19]; 125 µg/mL): 71 | Antibiofilm activity, C. albicans ([19]; 250 µg/mL): 81 | phytotoxic activity, leaf puncture assay [15]: brownish lesions

— PMC10669340, “Bioactive Compounds from an Endophytic Pezicula sp. Showing Antagonistic Effects against the Ash Dieback Pathogen” (Biomolecules, 2023)
